Experimental findings from patent US11840541B2 (priority 2014, dated 2023) are described below.

Common to all, as to assay: cell-based
The target of assay [1] is T1, Human KOR (Homo sapiens, UniProt P41145).
T1 construct: expressed in transfected cells; host or cells: HEK-293T
The following applies: for Emax: read-out: Emax in parentheses, Human KOR.

In assay [2] the target is T2, Human DOR (Homo sapiens, UniProt P41143).
T2 construct: expressed in transfected cells; host or cells: HEK-293T

In assay [3] the target is T3, Human MOR (Homo sapiens, UniProt P35372).
T3 construct: expressed in transfected cells; host or cells: HEK-293T
T3 sequence (P35372 whole entry): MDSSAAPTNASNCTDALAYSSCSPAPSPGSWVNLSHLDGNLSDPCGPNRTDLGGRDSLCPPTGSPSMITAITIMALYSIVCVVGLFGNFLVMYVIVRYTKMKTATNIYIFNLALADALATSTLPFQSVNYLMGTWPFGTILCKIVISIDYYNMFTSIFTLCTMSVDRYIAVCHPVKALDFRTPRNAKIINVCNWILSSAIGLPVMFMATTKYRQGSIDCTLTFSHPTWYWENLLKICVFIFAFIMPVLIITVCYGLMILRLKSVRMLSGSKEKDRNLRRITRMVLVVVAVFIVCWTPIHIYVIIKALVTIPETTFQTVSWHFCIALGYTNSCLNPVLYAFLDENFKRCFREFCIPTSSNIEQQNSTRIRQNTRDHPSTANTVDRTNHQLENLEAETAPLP

The mark [4] stands for this setting: EC50 at indicated opioid receptor, Human KOR.
The mark [5] stands for this setting: EC50 at indicated opioid receptor, Human DOR.
The mark [6] stands for this setting: EC50 at indicated opioid receptor, Human MOR.

T2 sequence (P41143 whole entry): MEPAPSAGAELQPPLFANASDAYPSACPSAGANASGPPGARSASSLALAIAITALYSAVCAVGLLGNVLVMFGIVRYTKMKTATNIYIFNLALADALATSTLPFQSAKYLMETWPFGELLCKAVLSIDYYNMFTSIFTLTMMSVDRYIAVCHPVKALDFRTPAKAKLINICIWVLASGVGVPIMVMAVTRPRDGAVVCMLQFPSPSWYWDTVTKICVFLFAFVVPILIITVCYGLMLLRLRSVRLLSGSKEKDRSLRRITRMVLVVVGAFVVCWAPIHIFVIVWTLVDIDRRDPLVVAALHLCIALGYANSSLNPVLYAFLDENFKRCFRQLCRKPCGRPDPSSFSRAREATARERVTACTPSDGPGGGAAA
T1 sequence (P41145 whole entry): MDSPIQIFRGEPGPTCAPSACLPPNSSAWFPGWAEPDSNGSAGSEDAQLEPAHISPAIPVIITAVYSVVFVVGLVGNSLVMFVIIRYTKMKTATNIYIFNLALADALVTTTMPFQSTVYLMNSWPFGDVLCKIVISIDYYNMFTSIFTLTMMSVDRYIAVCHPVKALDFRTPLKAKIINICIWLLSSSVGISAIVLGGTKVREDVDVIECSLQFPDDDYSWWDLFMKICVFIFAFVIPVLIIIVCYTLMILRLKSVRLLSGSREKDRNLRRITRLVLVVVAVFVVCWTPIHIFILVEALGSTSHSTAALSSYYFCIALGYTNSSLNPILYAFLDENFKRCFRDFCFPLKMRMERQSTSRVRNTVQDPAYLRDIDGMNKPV

Turning to `Oc1ccc2oc3c(c2c1)CCN1CC2CCC1C3C2` (stereo not shown) [Compound 35e], the EC50 in assay [1] (setting [4]) was less than 10 µM; in assay [2] (setting [5]), more than 100 µM; in assay [3] (setting [6]), less than 10 µM.

On to `CCC1CC2CC3c4oc5cc(O)ccc5c4CCN(C2)C13` (stereo not shown) [Compound 35f], for which the EC50 is less than 10 µM in assay [1] (setting [4]), more than 10 µM in assay [2] (setting [5]) and less than 10 µM in assay [3] (setting [6]).

As to `Oc1ccc2oc3c(c2c1)CCN1CC2CC(Cc4ccccc4)C1C3C2` (stereo not shown) [Compound 35g], the EC50 in assay [1] (setting [4]), in assay [2] (setting [5]) and in assay [3] (setting [6]) was less than 10 µM in each case.

`CCCCC1CC2CC3c4oc5ccc(O)cc5c4CCN(C2)C13` (stereo not shown) [Compound 35h]: the concentration giving a half-maximal response (EC50) in assay [1] (setting [4]), in assay [2] (setting [5]) and in assay [3] (setting [6]) was less than 10 µM throughout.

For the molecule `COCC1CC2CC3c4oc5ccc(O)cc5c4CCN(C2)C13` (stereo not shown) [Compound 35i], the EC50 in assay [1] (setting [4]), in assay [2] (setting [5]) and in assay [3] (setting [6]) was less than 10 µM in each case.

Turning to `OCC1CC2CC3c4oc5ccc(O)cc5c4CCN(C2)C13` (stereo not shown) [Compound 35j], the EC50 in assay [1] (setting [4]), in assay [2] (setting [5]) and in assay [3] (setting [6]) was less than 10 µM each time.

For `CCC1CC2CC3c4oc5cc(F)c(O)cc5c4CCN(C2)C13` (stereo not shown) [Compound 35k], the EC50 in assay [1] (setting [4]), in assay [2] (setting [5]) and in assay [3] (setting [6]) was less than 10 µM throughout.

Take `Oc1ccc2oc3c(c2c1)CCN1CC2CC(c4ccccc4)C1C3C2` (stereo not shown) [Compound 35l]: the EC50 in assay [1] (setting [4]), in assay [2] (setting [5]) and in assay [3] (setting [6]) was more than 10 µM each time.

Take `Oc1ccc2oc3c(c2c1)CCN1CC2CC(c4ccccc4)C1C3C2` (stereo not shown) [Compound 35m]: the half-maximal effective concentration (EC50) is more than 100 µM in assay [1] (setting [4]), less than 10 µM in assay [2] (setting [5]) and less than 10 µM in assay [3] (setting [6]).

Turning to `CCC1CC2CC3c4sc5ccc(O)cc5c4CCN(C2)C13` (stereo not shown) [Compound 35n], the EC50 in assay [1] (setting [4]) is less than 10 µM; in assay [2] (setting [5]) it was more than 100 µM; in assay [3] (setting [6]), less than 10 µM.

In the case of `CCC1CC2CC3c4oc5cccc(OC)c5c4CCN(C2)C13` (stereo not shown) [Compound 51b], the EC50 is more than 10 µM in assay [1] (EC50, Human KOR); more than 100 µM in assay [2] (EC50, Human DOR); more than 10 µM in assay [3] (EC50, Human MOR).

Take `CCC1CC2CC3c4oc5cc(C)c(OC)cc5c4CCN(C2)C13` (stereo not shown) [Compound 51c]: the concentration giving a half-maximal response (EC50) in assay [1] (EC50, Human KOR) was more than 10 µM; in assay [2] (EC50, Human DOR), more than 10 µM; in assay [3] (EC50, Human MOR), more than 10 µM.

As to `CCC1CC2CC3c4oc5c(O)cccc5c4CCN(C2)C13` (stereo not shown) [Compound 52a], the EC50 was more than 10 µM in assay [1] (setting [4]), more than 100 µM in assay [2] (setting [5]) and more than 100 µM in assay [3] (setting [6]).

On to `CCC1CC2CC3c4oc5cccc(O)c5c4CCN(C2)C13` (stereo not shown) [Compound 52b], for which the EC50 in assay [1] (setting [4]) is more than 100 µM; in assay [2] (setting [5]), more than 100 µM; in assay [3] (setting [6]), more than 10 µM.

With `CCC1CC2CC3c4oc5cc(C)c(O)cc5c4CCN(C2)C13` (stereo not shown) [Compound 52c], the EC50 in assay [1] (setting [4]), in assay [2] (setting [5]) and in assay [3] (setting [6]) was more than 10 µM throughout.

For the molecule `COCC1CC2CC3c4oc5ccc(OC)cc5c4CCN(C2)C13` (stereo not shown) [Compound 59g], the EC50 is less than 10 µM in assay [1] (EC50, Human KOR); more than 100 µM in assay [2] (EC50, Human DOR); more than 100 µM in assay [3] (EC50, Human MOR).

On to `CC1C2CCC3C(C2)c2oc4ccc(O)cc4c2CCN13` (stereo not shown) [Compound 60d], for which the EC50 was less than 10 µM in assay [1] (EC50, Human KOR); more than 100 µM in assay [2] (EC50, Human DOR); less than 10 µM in assay [3] (EC50, Human MOR).

`OCC1CC2CC3c4oc5ccc(O)cc5c4CCN(C2)C13` (stereo not shown) [Compound 60g]: the EC50 in assay [1] (EC50, Human KOR) is less than 10 µM; in assay [2] (EC50, Human DOR), more than 10 µM; in assay [3] (EC50, Human MOR) it was more than 10 µM.

As for `Oc1ccc2oc3c(c2c1)CCN1CC2CC(Cc4ccccc4)C1C3C2` (stereo not shown) [Compound 60h], the EC50 in assay [1] (EC50, Human KOR) is more than 10 µM; in assay [2] (EC50, Human DOR), more than 10 µM; in assay [3] (EC50, Human MOR), more than 10 µM.

`CCC1CC2CC3c4oc5ccc(O)cc5c4C[C@@H](C)N(C2)C13` (stereo partly drawn) [α-endo-52e]: the maximum response (Emax) is 26% in assay [1] and 24% in assay [3] (read-out: Emax in parentheses, Human MOR). In assay [2] (setting [5]), this molecule displayed an EC50 of more than 100 µM.

`CCC1(CC)CC2CC3c4oc5ccc(O)cc5c4C[C@@H](C)N(C2)C31` (stereo partly drawn) [α-endo-52f]: in assay [1], the “agonist activity at KOR (in words)” value is reported as “selective KOR agonist”. The EC50 in assay [1] (EC50, induced BRET signal, Human KOR) is 0.12 ± 0.014 µM; in assay [2] (setting [5]), more than 100 µM; in assay [3] (setting [6]), more than 100 µM. In addition, the Emax in assay [1] was 47%. Moreover, the “agonist activity at DOR (in words)” value in assay [2] was “not active as agonist”. Also, in assay [3], the “agonist activity at MOR (in words)” value is “not active as agonist”.
